In patent publication US7132278B2, “PAS kinase” (Board of Regents, The University of Texas System, priority 2001, dated 2006) one finds Km data, which are given here for 1 compound.

The target of the assay is PASK (Homo sapiens, UniProt Q96RG2, F1266C/Y899H). The note with it: read-out: Km for PASK; ATP as co-substrate.
PASK, sequence (Q96RG2 whole entry Y899H/F1266C): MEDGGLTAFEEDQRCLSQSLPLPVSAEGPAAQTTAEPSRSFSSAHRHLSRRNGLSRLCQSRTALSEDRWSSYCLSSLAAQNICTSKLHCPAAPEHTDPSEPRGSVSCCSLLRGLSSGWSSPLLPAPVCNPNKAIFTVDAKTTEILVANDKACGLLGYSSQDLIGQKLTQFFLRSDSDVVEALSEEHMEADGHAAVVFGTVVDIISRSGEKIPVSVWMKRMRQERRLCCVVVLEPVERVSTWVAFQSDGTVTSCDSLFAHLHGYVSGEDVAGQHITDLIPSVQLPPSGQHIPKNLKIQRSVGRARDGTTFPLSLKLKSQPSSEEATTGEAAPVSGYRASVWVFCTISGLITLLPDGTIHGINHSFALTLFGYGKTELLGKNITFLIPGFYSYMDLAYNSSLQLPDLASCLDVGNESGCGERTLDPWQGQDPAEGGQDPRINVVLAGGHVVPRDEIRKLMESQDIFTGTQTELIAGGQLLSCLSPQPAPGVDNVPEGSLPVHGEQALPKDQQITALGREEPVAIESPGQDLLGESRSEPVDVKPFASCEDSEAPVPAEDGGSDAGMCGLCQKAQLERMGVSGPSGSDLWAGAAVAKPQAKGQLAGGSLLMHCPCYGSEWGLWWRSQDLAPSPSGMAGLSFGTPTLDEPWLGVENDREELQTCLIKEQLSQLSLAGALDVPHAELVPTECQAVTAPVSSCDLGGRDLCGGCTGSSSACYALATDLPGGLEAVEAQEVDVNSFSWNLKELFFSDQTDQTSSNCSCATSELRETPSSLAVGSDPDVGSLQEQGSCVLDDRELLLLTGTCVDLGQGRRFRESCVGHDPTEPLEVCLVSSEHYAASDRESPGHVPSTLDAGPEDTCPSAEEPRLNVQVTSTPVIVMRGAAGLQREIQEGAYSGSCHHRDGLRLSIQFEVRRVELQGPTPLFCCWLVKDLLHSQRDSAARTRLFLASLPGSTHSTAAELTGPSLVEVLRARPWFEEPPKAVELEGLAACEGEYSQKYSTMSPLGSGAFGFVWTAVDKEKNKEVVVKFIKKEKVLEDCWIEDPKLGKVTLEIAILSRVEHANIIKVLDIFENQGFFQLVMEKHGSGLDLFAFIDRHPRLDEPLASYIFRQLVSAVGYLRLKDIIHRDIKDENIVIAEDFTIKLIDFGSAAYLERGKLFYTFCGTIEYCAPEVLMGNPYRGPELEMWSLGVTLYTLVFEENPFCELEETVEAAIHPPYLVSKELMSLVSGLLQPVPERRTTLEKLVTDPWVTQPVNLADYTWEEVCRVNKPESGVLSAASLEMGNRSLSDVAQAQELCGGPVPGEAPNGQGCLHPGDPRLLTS

Protocol: One HTS assay kinase assay we employ is a robust and simple, non-radioactive chemiluminescent assay that measures the ability of the human enzyme to phosphorylate a biotinylated derivative of the AMARA peptide. The enzyme is expressed in baculovirus and purified by affinity and ion-exchange chromatography under routine conditions. Assay buffer is composed of 20 mM Tris-HC1, pH 7.5, 10 mM MgC12, 2 mM EGTA, 0.1% NP-40, 0.5 mM benzamidine, 1 mM NaF and 10 mM DTT. Enzyme is added to this buffer at a concentration determined to be in the linear range of activity (10 ng per microtiter plate well). For the most robust and sensitive kinase assay, we use an ATP concentration matching the Kmfor PASK (2.5 mM). After dispensing 80 ul of the enzyme/buffer mix per well in Costar 96-well microtiter plates (coated with Neutravidin at 0.5 mg/ml at room temperature for 2 hr), 10 μl of test compounds is added at a final concentration of 1 μM compound. Compounds are diluted in DMSO from master plates stored in DMSO at 10 mM. Following compound addition, the reactions are initiated by addition of 10 μl of biotinylated AMARA peptide and ATP such that the final concentration of substrate and ATP are 1 mM and 2.5 mM respectively. […] Reactions are developed by addition of 100 μl of Super Signal substrate (Pierce) and read colorimetrically using a Wallac Victor2, 1420 Multilabel Counter.

Regarding `Nc1ncnc2c1ncn2[C@@H]1O[C@H](COP(=O)(O)OP(=O)(O)OP(=O)(O)O)[C@@H](O)[C@H]1O` [ATP], the Michaelis-Menten constant (Km) amounted to 2500 µM.

What is called Km is the concentration of substrate that gives half-maximal velocity.
